Source: patent US20050260582A1, “Cell proliferation inhibitors comprising ets transcription factor or gene encoding the same” (priority 2001, published 2005)

Key:
[1] = test system: human umbilical vein endothelial cells (HUVECs); assay: Migration of HUVECs toward serum-free culture supernatant; type: cell-based; details: 8-μm filter, 24 hours; A549 supernatant accelerated migration; bFGF positive control
Source text: Successively, it was further examined whether MEF gene overexpression of A549 cells influences metastasis of vessel endothelial cells. […] Human umbilical vein endothelial cells (HUVECs) were inoculated in an upper chamber, and cells migrating in a medium of a lower chamber were observed through a 8-μm filter.
The results are shown in FIG. 17 by photographs in place of drawings. […] In FIG. 18, the ordinate represents a (%) migration activity relative to a non-treated case, and the abscissa represents a non-treated case, a case of bFGF, a case of A549 cell and a case of MEF gene overexpressing cell (clone 71) from the left side respectively.
[…] of a cell suspension containing HUVECs at a concentration of 2.5×10^5 cells/ml was added to an upper layer of a matrigel invasion chamber (BD Biocoat Matrigel) having 8-μm pores. Subsequently, 700 μl of a serum-free culture supernatant produced according to 1. of Example 10 was added to a lower layer. After 24 hours, HUVECs invaded into the lower layer of the membrane filter were stained with hematoxylin, and the number of cells was then counted under a microscope.

A549 cell = assay: Cell morphology and F-actin staining; type: cell-based, human
Method: In FIG. 4, A549 cell, MEF gene overexpressing […] cell and A549 cell treated with BB94 (10 μM) are shown respectively from the left side.
Moreover, it has been reported that metastasis from epithelium to mesenchyme is induced by lack of E-cadherin or activation of MMPs [Llorens et al., 1998], expression of MMPs and E-cadherin was next examined. The right side in FIG. 5 is a photograph in place of a drawing, showing results of analyzing an MMP-9 protein content of A549 cell and MEF gene overexpressing cell in a serum-free culture supernatant (conditioned media) by western blotting using anti-MMP-9 antibody, and the left side in FIG. 5 is a photograph in place of a drawing, showing results of gelatin-zymography of MMP-9. […] In order to examine the decrease in MMP-9 activity in MEF gene overexpressing cell, A549 cell was treated with BB94 as an MMP inhibitor. […] Generally, such a morphological change thereof indicates reduction of an invasion activity. Accordingly, for examining an invasive function of A549 cell and MEF gene overexpressing cell, matrigel invasion assay was performed. In an upper chamber of FIG. 6, 2.5×10^5 A549 cells (left side), MEF gene overexpressing cells (center) and A549 cells (right side) treated with BB94 were inoculated respectively, and the numbers of cells on the lower side which were passed through a 8-μm filter were counted. […]

A549 cells = assay: Matrigel invasion assay; type: cell-based, human; details: cells passed through 8-μm filter after 24 hours; BB94-treated A549 as comparison
Source text: Moreover, it has been reported that metastasis from epithelium to mesenchyme is induced by lack of E-cadherin or activation of MMPs [Llorens et al., 1998], expression of MMPs and E-cadherin was next examined. The right side in FIG. 5 is a photograph in place of a drawing, showing results of analyzing an MMP-9 protein content of A549 cell and MEF gene overexpressing cell in a serum-free culture supernatant (conditioned media) by western blotting using anti-MMP-9 antibody, and the left side in FIG. 5 is a photograph in place of a drawing, showing results of gelatin-zymography of MMP-9. […] In an upper chamber of FIG. 6, 2.5×10^5 A549 cells (left side), MEF gene overexpressing cells (center) and A549 cells (right side) treated with BB94 were inoculated respectively, and the numbers of cells on the lower side which were passed through a 8-μm filter were counted. […]
200 μl of each cell suspension prepared to a concentration of 1.0×10^6 cells/ml was added to an upper layer of a matrigel invasion chamber (BD Biocoat Matrigel) having 8-μm pores, and 700 μl of a serum-free culture solution was added thereto. After 24 hours, the cells invaded in the lower layer of the membrane filter were stained with hematoxylin, and the number of the cells was then counted under a microscope.

MMP-9 promoter = assay: Luciferase assay using MMP-9 promoter; type: cell-based, human; details: 5-azacytidine (1 μM) and trichosamine A (1 μM)
Method: (§1) Accordingly, the present inventors further examined the function of MEF on transcription of MMP-9 and IL-8. For examining whether MEF directly suppresses transcription of MMP-9 and IL-8, the present inventors performed luciferase assay using MMP-9 and IL-8 promoters. […] In each case, the ordinate represents a relative luciferase activity, and the abscissa represents Basal, A549 cell, a case of adding 1.0 μM MEF, a case of adding 3.0 μM MEF, a case of adding 5.0 μM MEF and a case of adding MEF gene overexpressing cell (clone 71) from the left respectively. In A549 cell, a high luciferase activity of MMP-9 and IL-8 promoters was observed (FIG. 20). […] In each graph, the ordinate represents a relative luciferase activity, and the abscissa represents Basal, A549 cell, a case of adding Est-2 and a case of adding anti-Est-2 from the left respectively.
(§2) The finding of MMP-9 activation with ETS-2 is also backed up by the study on target deletion of Ets-2 using mice [Yamamoto, 1998]. Since MEF is, unlike PU-1, free from a repressor region [Kihara-Negishi, 2001] and interacts with HDAC or Sin3A having a deacetylase activity, the present inventors next assumed that MEF is a competitor with ETS-2 in ets binding sites of these promoters. […]

MEF expression = MEF expression by RT-PCR; type: cell-based, human
Source text: Next, since methylcytosine is recognized with methylated DNA bound to protein MeCP2 interacting with HDAC [Ng et al, 1999], the present inventors examined the effect given by the combined use of 5-aza-2′-deoxycytidine (5-azacytidine) as a demethylation agent and tricostatin A as a histone deacylase inhibitor in MEF expression of A549 cell. The results are shown in photographs in place of drawings in FIG. 3. […] GAPDH is shown as a control. In FIG. 3, HEK293 cell, A549 cell and Caco-2 cell are shown from the left side in an upper panel, and A549 cell and Caco-2 cell from the left side in a lower panel. In FIG. 3, DMSO indicates dimethyl sulfoxide, 5-AC indicates 5-azacytidine and TSA indicates tricostatin A respectively. […] The low MEF expression in Hela cell is considered to be attributed to any other unknown mechanism. This is also backed up by the report that Hela cell lacking in known methylation-dependent inhibitor MeCP2 becomes a silence methylation gene using another route including MBD2 [Ng et al., 1999].
Isogene (Nippon Gene) was used in extraction of all RNAs from culture cells. For comparison of various gene expressions of culture cells, RT-PCR was conducted. RNA PCR kit (AMV) ver. 2.1 (TaKaRa) was used for RT-PCR. The methods by which the gene expression identified in the invention are outlined below.
A reverse transcription reaction (at 42° C. for 60 minutes, at 99° C. for 5 minutes, at 5° C. for 5 minutes) was performed using 1 μg of all RNAs extracted from A549 and other cells as templates and oligo dT primers. Thereafter, PCR (at 94° C. for 2 minutes—1 cycle; at 94° C. for 30 seconds, at 58° C. for 30 seconds, at 72° C. for 30 seconds—40 cycles) was performed using an upstream primer (5′-[…]-3,) and a downstream primer (5,-[…]-3′).

IL-8 promoter = assay: Luciferase assay using IL-8 promoter; type: cell-based, human; details: 5-azacytidine (1 μM) and trichosamine A (1 μM)
Method: as §1, §2

**Q.** Which “migration of HUVECs” value [1] does the source give for “bFGF: basic FGF, positive control for HUVEC migration” here?
**A.** increased migration of HUVECs

**Q.** Which F-actin localization (A549 cell; MEF gene overexpression or BB94 10 μM) does the source give for CNC(=O)[C@H](Cc1ccccc1)NC(=O)[C@H](CC(C)C)[C@H](CSc1cccs1)C(=O)NO [BB94] here?
**A.** localization of F-actin in the interface between cells

**Q.** And the morphological change (A549 cell; MEF gene overexpression, BB94 10 μM or 5-azacytidine 10 μm)?
**A.** induced typical morphological change

**Q.** What about the invasion activity (A549 cells) of the same compound?
**A.** inhibitory effect

**Q.** CC(/C=C/C(=O)NO)=C\[C@@H](C)C(=O)c1ccc(N(C)C)cc1 [tricostatin A] was tested. Which MMP-9 promoter activity (MMP-9 promoter) did it give?
**A.** inhibited

**Q.** What about the MEF expression (MEF expression; A549 cell, combined use of 5-azacytidine (1 μM) and tricostatin A (300 μM)) of the same compound?
**A.** clearly increased the MEF expression

**Q.** And the MEF expression (MEF expression; A549 cell, single use of the reagent)?
**A.** increased the MEF expression only slightly

**Q.** What about the MEF expression (MEF expression; Caco-2 cell, 5-azacytidine and tricostatin A) of the same compound?
**A.** same effect was observed

**Q.** What about the MEF expression (MEF expression; HEK293 cell, 5-azacytidine and tricostatin A) of the same compound?
**A.** not in HEK293 and Hela cells

**Q.** And the MEF expression (MEF expression; Hela cell, 5-azacytidine and tricostatin A)?
**A.** not in HEK293 and Hela cells

**Q.** And the IL-8 promoter activity (IL-8 promoter)?
**A.** inhibited
